In patent publication US20040101534A1 (priority 2002, published 2004):
Entries after “also recorded” stand apart in the source; their conditions may differ.

Experiments:
[1] = test system: T2 cells loaded with pp65495-503; conditions: mouse, in vivo; cited from earlier work
human PBL = conditions: cited from earlier work
[2] = test system: JA2.1 T cells infected with vaccinia virus expressing pp65; design: species or system HLA A2.1/K^b transgenic mice; conditions: mouse, in vivo, sc

Sequence	CTL response directed at the pp65495-503 CTL epitope [1]	CTL precursor memory response (human PBL)	recognition of endogenously processed pp65 [2]
NLVPMVATV [pp65495-503]	robust CTL response	stimulates a CTL precursor (CTLp) memory response	–
VSTIVPYIGPALNIAAANLVPMVATV [Tet639V]	–	–	evident; also recorded: more prominent
